Where no end group is shown, it is not given here.
How the values were obtained:
HLA DRB1 *1101 = HLA DRB1 *1101 (Homo sapiens, UniProt P01903+P01911, A100R/A169T/A87E/I96F/K41T/L162R/M171V/P40S/Q125H/Q178H/Q39Y/Q99D/R42S/S66Y/T262R/V115G/W38E); assay: IC50nM to purified HLA | DRB1 *1101
Description: (§1) Table printed on a drawing sheet, FIG. 1 (contd.)
Head of the field: IC50nM to purified HLA | DRB1 *1101
(§2) First copying reader's note: Continued from the preceding sheet of FIG. 1; decimal commas are used, the analog names give the substituted residues and positions in PADRE, and some values are printed in italics or bold and some SEQ ID NOs bold and underlined without a legend on this sheet.
Where the first naming reader finds the target: head: IC50nM to purified HLA | DRB1 *1101

HLA DRB4 *0101 = HLA DRB4 *0101 (Homo sapiens, UniProt P01903+P13762, G164S); assay: IC50nM to purified HLA | DRB4 *0101
Description: as §1
(§3) Head of the field: IC50nM to purified HLA | DRB4 *0101
as §2
(§4) Where the first naming reader finds the target: head: IC50nM to purified HLA | DRB4 *0101

HLA DRB1 *0802 = HLA DRB1 *0802 (Homo sapiens, UniProt P01903+P01911, A100R/A103L/A169T/F76Y/H45Y/I96F/K41T/L162R/M171V/P40S/Q125H/Q178H/Q39Y/Q99D/R218S/R42G/S66Y/V115G/W38E); assay: IC50nM to purified HLA | DRB1 *0802
Description: as §1
(§5) Head of the field: IC50nM to purified HLA | DRB1 *0802
as §2
(§6) Where the first naming reader finds the target: head: IC50nM to purified HLA | DRB1 *0802

HLA DRB1 *0405 = HLA DRB1 *0405 (Homo sapiens, UniProt P01903+P01911, A100R/A169T/D86S/F76Y/I96L/K127E/L162R/M171V/N62H/P40V/Q125Y/R42H/S133A/S149N/S66Y/V115G/V209L/W38E); assay: IC50nM to purified HLA | DRB1 *0405
Description: as §1
(§7) Head of the field: IC50nM to purified HLA | DRB1 *0405
as §2
(§8) Where the first naming reader finds the target: head: IC50nM to purified HLA | DRB1 *0405

HLA DRB1 *0101 = HLA DRB1 *0101 (Homo sapiens, UniProt P01903+P01911, A100R/D57E/F55L/F60I/F76Y/I96L/L162R/M171V/P40L/Q125E/R42F/V115G/Y59C); assay: IC50nM to purified HLA | DRB1 *0101
Description: as §1
(§9) Head of the field: IC50nM to purified HLA | DRB1 *0101
as §2
(§10) Where the first naming reader finds the target: head: IC50nM to purified HLA | DRB1 *0101

HLA DRB1 *1501 = HLA DRB1 *1501 (Homo sapiens, UniProt P01903+P01911); assay: IC50nM to purified HLA | DRB1 *1501
Description: as §1
(§11) Head of the field: IC50nM to purified HLA | DRB1 *1501
as §2
(§12) Where the first naming reader finds the target: head: IC50nM to purified HLA | DRB1 *1501

HLA DRB1 *0404 = HLA DRB1 *0404 (Homo sapiens, UniProt P01903+P01911, A100R/A169T/F76Y/I96L/K127E/L162R/M171V/N62H/P40V/Q125Y/R42H/S133A/S149N/S66Y/V209L/W38E); assay: IC50nM to purified HLA | DRB1 *0404
Description: as §1
(§13) Head of the field: IC50nM to purified HLA | DRB1 *0404
as §2
(§14) Where the first naming reader finds the target: head: IC50nM to purified HLA | DRB1 *0404

HLA DRB1 *0901 = HLA DRB1 *0901 (Homo sapiens, UniProt P01903+P01911, A100R/A103E/D57H/D86V/F55Y/F60I/F76Y/I96F/K127E/L162R/M171V/P40D/Q125H/Q99R/R33Q/R42F/S133A/S66N/T210M/V115G/W38K/Y107V/Y59G/Y89S); assay: IC50nM to purified HLA | DRB1 *0901
Description: as §1
Head of the field: IC50nM to purified HLA | DRB1 *0901
as §2
Where the first naming reader finds the target: head: IC50nM to purified HLA | DRB1 *0901

purified HLA DRB1 *0404 = purified HLA DRB1 *0404 (Homo sapiens, UniProt P01903+P01911, A100R/A169T/F76Y/I96L/K127E/L162R/M171V/N62H/P40V/Q125Y/R42H/S133A/S149N/S66Y/V209L/W38E); assay: IC50nM to purified HLA | DRB1 *0404
Description: (§15) Table printed on a drawing sheet, FIG. 1
as §13
(§16) First copying reader's note: The comma is the decimal sign and the point a thousands separator (e.g. 21.831); some values are printed bold or italic and some SEQ ID NOs underlined, with no legend on the sheet.
as §14

purified HLA DRB4 *0101 = purified HLA DRB4 *0101 (Homo sapiens, UniProt P01903+P13762, G164S); assay: IC50nM to purified HLA | DRB4 *0101
Description: as §15, §3, §16, §4

purified HLA DRB1 *0701 = purified HLA DRB1 *0701 (Homo sapiens, UniProt P01903+P01911, A100R/A102G/A103Q/D57E/D86V/E43K/F76Y/K127E/L162R/M171V/P40G/Q125H/Q99D/R33Q/R42Y/R54Q/S133A/S66F/T210M/V115G/Y107V/Y59L/Y89S); assay: IC50nM to purified HLA | DRB1 *0701
Description: as §15
Head of the field: IC50nM to purified HLA | DRB1 *0701
as §16
Where the first naming reader finds the target: head: IC50nM to purified HLA | DRB1 *0701

purified HLA DRB1 *1501 = purified HLA DRB1 *1501 (Homo sapiens, UniProt P01903+P01911); assay: IC50nM to purified HLA | DRB1 *1501
Description: as §15, §11, §16, §12

purified HLA DRB1 *0101 = purified HLA DRB1 *0101 (Homo sapiens, UniProt P01903+P01911, A100R/D57E/F55L/F60I/F76Y/I96L/L162R/M171V/P40L/Q125E/R42F/V115G/Y59C); assay: IC50nM to purified HLA | DRB1 *0101
Description: as §15, §9, §16, §10

purified HLA DRB1 *0802 = purified HLA DRB1 *0802 (Homo sapiens, UniProt P01903+P01911, A100R/A103L/A169T/F76Y/H45Y/I96F/K41T/L162R/M171V/P40S/Q125H/Q178H/Q39Y/Q99D/R218S/R42G/S66Y/V115G/W38E); assay: IC50nM to purified HLA | DRB1 *0802
Description: as §15, §5, §16, §6

purified HLA DRB1 *0301 = purified HLA DRB1 *0301 (Homo sapiens, UniProt P01903+P01911, A100K/A102G/A103R/A169T/F55Y/I96L/K41T/L162R/M171V/P40S/Q125H/Q178H/Q39Y/R42S/S66N/T106N/T262R/W38E/Y61H); assay: IC50nM to purified HLA | DRB1 *0301
Description: as §15
(§17) Head of the field: IC50nM to purified HLA | DRB1 *0301
as §16
(§18) Where the first naming reader finds the target: head: IC50nM to purified HLA | DRB1 *0301

purified HLA DRB1 *0401 = purified HLA DRB1 *0401 (Homo sapiens, UniProt P01903+P01911, A100K/A169T/F76Y/I96L/K127E/L162R/M171V/N62H/P40V/Q125Y/R42H/S133A/S149N/S66Y/V115G/V209L/W38E); assay: IC50nM to purified HLA | DRB1 *0401
Description: as §15
(§19) Head of the field: IC50nM to purified HLA | DRB1 *0401
as §16
(§20) Where the first naming reader finds the target: head: IC50nM to purified HLA | DRB1 *0401

purified HLA DRB5 *0101 = purified HLA DRB5 *0101 (Homo sapiens, UniProt P01903+Q30154); assay: IC50nM to purified HLA | DRB5 *0101
Description: as §15
(§21) Head of the field: IC50nM to purified HLA | DRB5 *0101
as §16
(§22) Where the first naming reader finds the target: head: IC50nM to purified HLA | DRB5 *0101

purified HLA DRB1 *0405 = purified HLA DRB1 *0405 (Homo sapiens, UniProt P01903+P01911, A100R/A169T/D86S/F76Y/I96L/K127E/L162R/M171V/N62H/P40V/Q125Y/R42H/S133A/S149N/S66Y/V115G/V209L/W38E); assay: IC50nM to purified HLA | DRB1 *0405
Description: as §15, §7, §16, §8

HLA DRB1 *0301 = HLA DRB1 *0301 (Homo sapiens, UniProt P01903+P01911, A100K/A102G/A103R/A169T/F55Y/I96L/K41T/L162R/M171V/P40S/Q125H/Q178H/Q39Y/R42S/S66N/T106N/T262R/W38E/Y61H); assay: IC50nM to purified HLA | DRB1 *0301
Description: as §1, §17, §2, §18

HLA DRB1 *0401 = HLA DRB1 *0401 (Homo sapiens, UniProt P01903+P01911, A100K/A169T/F76Y/I96L/K127E/L162R/M171V/N62H/P40V/Q125Y/R42H/S133A/S149N/S66Y/V115G/V209L/W38E); assay: IC50nM to purified HLA | DRB1 *0401
Description: as §1, §19, §2, §20

HLA DRB1 *1302 = HLA DRB1 *1302 (Homo sapiens, UniProt P01903+P01911, A100E/A169T/K41T/L162R/M171V/P40S/Q125H/Q178H/Q39Y/Q99D/R42S/S66N/T262R/V115G/W38E/Y61H); assay: IC50nM to purified HLA | DRB1 *1302
Description: as §1
(§23) Head of the field: IC50nM to purified HLA | DRB1 *1302
as §2
(§24) Where the first naming reader finds the target: head: IC50nM to purified HLA | DRB1 *1302

HLA DRB5 *0101 = HLA DRB5 *0101 (Homo sapiens, UniProt P01903+Q30154); assay: IC50nM to purified HLA | DRB5 *0101
Description: as §1, §21, §2, §22

purified HLA DRB1 *1302 = purified HLA DRB1 *1302 (Homo sapiens, UniProt P01903+P01911, A100E/A169T/K41T/L162R/M171V/P40S/Q125H/Q178H/Q39Y/Q99D/R42S/S66N/T262R/V115G/W38E/Y61H); assay: IC50nM to purified HLA | DRB1 *1302
Description: as §15, §23, §16, §24

HLA DRB1 *1101, sequence (P01903 26-254 limits assumed, other chains not shown): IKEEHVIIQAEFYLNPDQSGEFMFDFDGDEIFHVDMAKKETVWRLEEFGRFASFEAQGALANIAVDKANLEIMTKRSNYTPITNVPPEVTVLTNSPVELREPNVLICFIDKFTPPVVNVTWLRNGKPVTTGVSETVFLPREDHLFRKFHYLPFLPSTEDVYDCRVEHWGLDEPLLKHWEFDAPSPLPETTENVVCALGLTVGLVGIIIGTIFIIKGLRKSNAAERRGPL
purified HLA DRB4 *0101, sequence (P01903 26-254 limits assumed): as the sequence (P01903 26-254 limits assumed, other chains not shown) above
purified HLA DRB4 *0101, sequence (P13762 whole entry G164S): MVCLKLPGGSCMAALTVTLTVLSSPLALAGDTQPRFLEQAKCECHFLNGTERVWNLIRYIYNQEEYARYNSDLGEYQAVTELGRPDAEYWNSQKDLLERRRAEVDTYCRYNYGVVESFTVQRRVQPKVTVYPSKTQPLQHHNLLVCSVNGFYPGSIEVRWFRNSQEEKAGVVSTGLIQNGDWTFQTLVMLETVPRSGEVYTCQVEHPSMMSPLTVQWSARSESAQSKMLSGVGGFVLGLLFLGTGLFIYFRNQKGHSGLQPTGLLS
purified HLA DRB1 *0301, sequence (P01903 26-254 limits assumed, other chains not shown): as the sequence (P01903 26-254 limits assumed, other chains not shown) above
HLA DRB4 *0101, sequence (P01903 26-254 limits assumed): as the sequence (P01903 26-254 limits assumed, other chains not shown) above
HLA DRB4 *0101, sequence (P13762 whole entry G164S): as the sequence (P13762 whole entry G164S) above
HLA DRB1 *1302, sequence (P01903 26-254 limits assumed, other chains not shown): as the sequence (P01903 26-254 limits assumed, other chains not shown) above
HLA DRB1 *0301, sequence (P01903 26-254 limits assumed, other chains not shown): as above
purified HLA DRB1 *1302, sequence (P01903 26-254 limits assumed, other chains not shown): as above

Sequence	IC50 (HLA DRB1 *1101)	IC50 (HLA DRB4 *0101)	IC50 (HLA DRB1 *0802)	IC50 (HLA DRB1 *0405)	IC50 (HLA DRB1 *0101)	IC50 (HLA DRB1 *1501)	IC50 (HLA DRB1 *0404)	IC50 (HLA DRB1 *0901)	IC50 (purified HLA DRB1 *0404)	IC50 (purified HLA DRB4 *0101)	IC50 (purified HLA DRB1 *0701)	IC50 (purified HLA DRB1 *1501)	IC50 (purified HLA DRB1 *0101)	IC50 (purified HLA DRB1 *0802)	IC50 (purified HLA DRB1 *0301)	IC50 (purified HLA DRB1 *0401)	IC50 (HLA DRB1 *0401)	other results
AAAEFVAANTLHAAA [SEQ ID NO: 49]	70 nM	878 nM	37 nM	44 nM	9 nM	137 nM	6.9 nM	87 nM										
AAAFFVAAYTLHAAA [SEQ ID NO: 13]									2.3 nM	805 nM	54 nM	4.8 nM	4.4 nM	7.4 nM	151 nM	1.7 nM		IC50 (purified HLA DRB5 *0101): 11 nM; IC50 (purified HLA DRB1 *0405): 19 nM

Further lines, with some results ahead:

IC50 (HLA DRB1 *1101)	IC50 (HLA DRB4 *0101)	IC50 (HLA DRB1 *0802)	IC50 (HLA DRB1 *0405)	IC50 (HLA DRB1 *0101)	IC50 (HLA DRB1 *1501)	IC50 (HLA DRB1 *0404)	IC50 (HLA DRB1 *0901)	IC50 (purified HLA DRB1 *0404)	IC50 (purified HLA DRB4 *0101)	IC50 (purified HLA DRB1 *0701)	IC50 (purified HLA DRB1 *1501)	IC50 (purified HLA DRB1 *0101)	IC50 (purified HLA DRB1 *0802)	IC50 (purified HLA DRB1 *0301)	IC50 (purified HLA DRB1 *0401)	IC50 (HLA DRB1 *0401)	Sequence	other results
								2.9 nM	440 nM	60 nM	25 nM	3.6 nM	7.8 nM	129 nM	2.2 nM		AAAFFVAAWTLHAAA [SEQ ID NO: 12]	
8.1 nM	100 nM	11 nM		4 nM	13 nM	3.1 nM	24 nM									2.2 nM	AAAHFVAAFTLHAAA [SEQ ID NO: 28]	IC50 (HLA DRB1 *0301): 228 nM
41 nM		19 nM	8.1 nM		31 nM	8.1 nM	46 nM									6.4 nM	AAAHFVAAFTLKAEA [SEQ ID NO: 38]	IC50 (HLA DRB1 *1302): 801 nM; IC50 (HLA DRB5 *0101): 19 nM
									267 nM	53 nM		4.2 nM	9.3 nM				AAAHFVAAWTLHAAA [SEQ ID NO: 26]	IC50 (purified HLA DRB1 *1302): 1190 nM

From patent US9789181B2, “PAN-DR binding polypeptides and uses thereof” (Epimmune Inc., priority 2009, dated 2017)
